Experimental data as given in PubChem BioAssay (NCI).
“And” between values parts separate entries of the source, which are not always exact repeats. Equal values may be shown once.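 In this assay, cells in 96-well plates receive the compound at five concentrations for 48 hours. Endpoints are linearly interpolated between the surrounding concentrations. GI50: concentration for 50% inhibition of growth. TGI denotes the concentration required for complete inhibition of growth.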

How the values were obtained:
Assay in all cases: growth of human tumour cells (NCI), 48 h
OVCAR-8 ovarian = system: OVCAR-8 ovarian
SF-268 CNS = system: SF-268 CNS
SW-620 colon = system: SW-620 colon
LOX IMVI melanoma = system: LOX IMVI melanoma
SNB-75 CNS = system: SNB-75 CNS
SN12C renal = system: SN12C renal
HCT-116 colon = system: HCT-116 colon
MALME-3M melanoma = system: MALME-3M melanoma
SF-539 CNS = system: SF-539 CNS
SK-OV-3 ovarian = system: SK-OV-3 ovarian

SMILES	TGI (OVCAR-8 ovarian)	TGI (SF-268 CNS)	TGI (SW-620 colon)	TGI (LOX IMVI melanoma)	TGI (SNB-75 CNS) [µM]	TGI (SN12C renal)	TGI (HCT-116 colon)	TGI (MALME-3M melanoma)	TGI (SF-539 CNS)	TGI (SK-OV-3 ovarian)	GI50 (OVCAR-8 ovarian) [µM]	GI50 (SF-268 CNS) [µM]	GI50 (SW-620 colon) [µM]	GI50 (LOX IMVI melanoma)	GI50 (SNB-75 CNS) [µM]	GI50 (SN12C renal) [µM]	GI50 (HCT-116 colon)	GI50 (MALME-3M melanoma) [µM]	GI50 (SF-539 CNS)	GI50 (SK-OV-3 ovarian) [µM]
O=c1ncccn1[C@@H]1O[C@H](CO)[C@H](O)C1O (some centres not stated)	> 100 µM	> 100 µM	> 100 µM	> 100 µM	> 100	> 100 µM	> 100 µM	> 100 µM	> 100 µM	> 100 µM										
CCSC1=NC2C(N(CC)C(=O)N2CC)N1/N=C/C=C/c1ccccc1[N+](=O)[O-] (configuration not stated)	> 100 µM	> 100 µM	> 100 µM	> 100 µM	> 100	> 100 µM	> 100 µM	> 100 µM	0.736 µM	> 100 µM	0.385	0.486	0.186	0.126 µM	0.0528	0.401	0.114 µM	0.135	0.0804 µM	0.329
C=C(c1ccccc1)C1(O)CCCCC1N (configuration not stated)	> 100 µM	> 100 µM	> 100 µM	> 100 µM	> 100	> 100 µM	> 100 µM	> 100 µM	> 100 µM	> 100 µM										
Cc1c(OC(C)C(=O)O)ccc2c(-c3ccccc3)cc(=O)oc12 (configuration not stated)	> 100 µM	> 100 µM	> 100 µM	> 100 µM	> 100	> 100 µM	> 100 µM	> 100 µM	> 100 µM	> 100 µM										
FC(F)(F)c1cccc(-c2nc3nc(Cl)c(Cl)nc3[nH]2)c1	> 100 µM	> 65.8 µM	> 42.3 µM	13.1 µM	7.06	> 35.9 µM	12.1 µM	12.5 µM	> 27.7 µM	> 90.1 µM										
CCOc1ccccc1CCN=C1NC(=O)/C(=C/c2ccc3ncccc3c2)S1	> 25 µM	> 25 µM	5.28 µM	7.9 µM	7.79	> 25 µM	> 9.15 µM	10.6 µM	2.95 µM	8.46 µM	3.08	1.35	0.712	1.16 µM	0.536	1.61	0.995 µM	3	0.751 µM	1.81
CCN1C(=O)N(CC)C2C1NN=c1s/c(=C\c3ccc(Cl)cc3Cl)c(=O)n12 (configuration not stated)	36.6 µM	> 67.5 µM	> 100 µM	> 35.1 µM	0.971	> 53.4 µM		> 75 µM	0.0698 µM	> 100 µM	0.0368	0.0485	0.0439	0.0329 µM	0.0258	0.0482	0.0317 µM	0.0777	0.0241 µM	0.0448
CO/N=C(\COc1ccc2c(c1)[nH]c1ccccc12)c1ccc(OC)cc1	27.5 µM	> 100 µM	> 100 µM	> 100 µM	> 100	> 100 µM	> 100 µM	74.6 µM	> 100 µM	> 100 µM	5.84	56.1	> 100	19.6 µM	6.66	57.9	28.3 µM	9.71	13.8 µM	34.6
Cc1ccc(S(=O)(=O)SC/C=C\CSS(=O)(=O)c2ccc(C)cc2)cc1	46.8 µM and 33.9 µM	> 73.2 µM and 74.4 µM	74.2 µM and 29.8 µM	33.2 µM and 29.1 µM	> 100	88.5 µM and 37.1 µM	29.7 µM and 41.4 µM	> 94.9 µM and 43.8 µM	43.6 µM and 33.3 µM	98.9 µM and 83.2 µM				4.68 µM and 13.5 µM			5.31 µM and 19.9 µM		7 µM and 17.2 µM	
O=c1cc(-c2cccs2)[nH]c2cc3c(cc12)OCO3	27.7 µM	> 100 µM	> 100 µM	> 100 µM	6.63	> 100 µM	> 100 µM	> 100 µM	12.7 µM	8.14 µM										
CNC(=S)Nc1ccc(OC)c2ccccc12	> 10 µM	> 10 µM	> 10 µM	> 10 µM	> 10	> 10 µM	> 10 µM	> 10 µM	> 10 µM	> 10 µM										
C=C1CCC2C3(C)COC(C)(C)OC3CCC2(C)C1C/C=C1/C(=O)OCC1OC(C)=O (configuration not stated)	6.8 µM	17.6 µM	2.74 µM	2.46 µM	16.5	22.6 µM	2.31 µM	10.1 µM	3.3 µM	25.7 µM	2.18	5.83	1.27	0.704 µM	5.23	5.95	1.1 µM	3.11	1.72 µM	12.5
CCOC(=O)Oc1c(OC)cc(C(=O)c2ccc(OC)c(O)c2OC)cc1OC	> 100 µM	> 100 µM	> 100 µM	> 100 µM	> 100	> 100 µM	12.8 µM	> 100 µM	5.83 µM	> 100 µM	3.36	10.7	0.489	0.557 µM	0.534	2.79	0.44 µM	0.686	0.637 µM	2.88
